{"source": "patent US20170095522A1", "about": "“Compositions Containing Extracts of Curcuma SPP and Zingiber officinale Which Are Useful to Reduce Peripheral Inflammation and Pain” (INDENA S.p.A., priority 2015, published 2017)", "key": {"[1]": {"system": "patients with grade I or II hip osteoarthritis", "test": "Karnofsky Performance Scale Index in 8-month hip osteoarthritis study", "format": "in vivo, human", "method": "The clinical end-points (WOMAC score, Karnofsky Performance Scale Index and treadmill walking performance) were evaluated for the single agents and for the combination of the two vs. a placebo. […] 100 patients with grade I or II hip osteoarthritis, confirmed by X-ray analysis, were enrolled in the study. The patients were allowed to self-medicate with NSAIDs during the 8-month trial. […] Group C received a combination of curcumin and Zingiber officinale at the same doses as reported above for the single ingredients. The last group received a corresponding placebo. To ensure clinical homogeneity, the main location of the osteoarthritis in these subjects, and the source of most of their signs and symptoms, was in one or both hips. Primary osteoarthritis in one or both hips was diagnosed by X-ray investigation. The subjects had mild to moderate pain not adequately or completely controlled with anti-inflammatory drugs. They had to be able to perform the treadmill walking test and to understand all the questions in the WOMAC questionnaire. The Karnofsky Performance Scale Index was used to classify the patients in terms of functional impairment. The Karnofsky Performance Scale Index can be used to compare the effectiveness of different treatments and to assess the prognosis in individual patients. The lower the Karnofsky score, the worse the patient's functional impairment. The variations in the results (i.e. walking distance) were considered parametric. Non-parametric observations (e.g. the WOMAC score) were evaluated with analysis of variance (ANOVA with the Bonferroni correction). Considering the possible intra-individual and inter-individual data variations, at least 40 completing subjects were needed for this type of study (at least 40 subjects who completed the entire follow-up period in each group). This numerical value was established, on the basis of our previous study, with a view to eliminating spontaneous variability and time variations. OA and its related signs/symptoms, even under conditions of relative stability, may have a spontaneous degree of variability associated with periods of improvement. Clinical variations in signs/symptoms, walking distance, oedema and the Karnofsky scale may be due to various clinical and non-clinical (i.e."}, "[2]": {"system": "patients with grade I or II hip osteoarthritis", "test": "WOMAC scores (signs/symptoms of osteoarthritis) in 8-month hip osteoarthritis study", "format": "in vivo, human", "method": "The clinical end-points (WOMAC score, Karnofsky Performance Scale Index and treadmill walking performance) were evaluated for the single agents and for the combination of the two vs. a placebo. […] 100 patients with grade I or II hip osteoarthritis, confirmed by X-ray analysis, were enrolled in the study. The patients were allowed to self-medicate with NSAIDs during the 8-month trial. […] Group C received a combination of curcumin and Zingiber officinale at the same doses as reported above for the single ingredients. The last group received a corresponding placebo. To ensure clinical homogeneity, the main location of the osteoarthritis in these subjects, and the source of most of their signs and symptoms, was in one or both hips. Primary osteoarthritis in one or both hips was diagnosed by X-ray investigation. The subjects had mild to moderate pain not adequately or completely controlled with anti-inflammatory drugs. They had to be able to perform the treadmill walking test and to understand all the questions in the WOMAC questionnaire. The questionnaire developed by the Western Ontario and McMaster Universities was applied to describe and rate the symptoms of OA. The questionnaire produces scores for the various symptoms of OA (WOMAC scores). The status of the OA signs/symptoms was evaluated by the investigator together with the patient on inclusion, and after 1 month, 4 months and 8 months treatment. The variations in the results (i.e. walking distance) were considered parametric. Non-parametric observations (e.g. the WOMAC score) were evaluated with analysis of variance (ANOVA with the Bonferroni correction). Considering the possible intra-individual and inter-individual data variations, at least 40 completing subjects were needed for this type of study (at least 40 subjects who completed the entire follow-up period in each group). This numerical value was established, on the basis of our previous study, with a view to eliminating spontaneous variability and time variations. OA and its related signs/symptoms, even under conditions of relative stability, may have a spontaneous degree of variability associated with periods of improvement. Clinical variations in signs/symptoms, walking distance, oedema and the Karnofsky scale may be due to various clinical and non-clinical (i.e."}, "[3]": {"system": "patients with grade I or II hip osteoarthritis", "test": "Treadmill walking test, total pain-free distance", "format": "in vivo, human", "conditions": "3 km/hour, 10% incline", "method": "The clinical end-points (WOMAC score, Karnofsky Performance Scale Index and treadmill walking performance) were evaluated for the single agents and for the combination of the two vs. a placebo. […] 100 patients with grade I or II hip osteoarthritis, confirmed by X-ray analysis, were enrolled in the study. The patients were allowed to self-medicate with NSAIDs during the 8-month trial. […] Group C received a combination of curcumin and Zingiber officinale at the same doses as reported above for the single ingredients. The last group received a corresponding placebo. To ensure clinical homogeneity, the main location of the osteoarthritis in these subjects, and the source of most of their signs and symptoms, was in one or both hips. Primary osteoarthritis in one or both hips was diagnosed by X-ray investigation. The subjects had mild to moderate pain not adequately or completely controlled with anti-inflammatory drugs. They had to be able to perform the treadmill walking test and to understand all the questions in the WOMAC questionnaire. […] On inclusion and after 1 month, 4 months and 8 months treatment, the patient's performance was evaluated with the treadmill test at a speed of 3 km/h and an incline of 10%. The total pain-free distance was recorded. […] Non-parametric observations (e.g. the WOMAC score) were evaluated with analysis of variance (ANOVA with the Bonferroni correction). […]"}, "[4]": {"conditions": "preliminary clinical trials; oral; cited from earlier work"}, "[5]": {"conditions": "cited from earlier work"}}, "note": "Marks after values point to notes of the source that are not given here."}
{"compound": "COc1cc(/C=C/C(=O)CC(=O)/C=C/c2ccc(O)c(OC)c2)ccc1O", "note": "[Curcumin, curcumin]", "values": [{"measurement": "Karnofsky scale (median)", "setting": "[1]; 1 month treatment, curcumin 1000 mg/day and/or Zingiber officinale extract 100 mg/day", "value": 77}, {"measurement": "Karnofsky scale (median)", "setting": "[1]; 4 months treatment, curcumin 1000 mg/day and/or Zingiber officinale extract 100 mg/day", "value": "80*"}, {"measurement": "Karnofsky Scale scores, result in words", "setting": "[1]; 8-month study", "value": "significantly improved"}, {"measurement": "Karnofsky scale (median)", "setting": "[1]; 8 months treatment, curcumin 1000 mg/day and/or Zingiber officinale extract 100 mg/day", "value": "81*"}, {"measurement": "Karnofsky scale (median)", "setting": "[1]; Inclusion (baseline), hip osteoarthritis patients", "value": 73}, {"measurement": "WOMAC Pain mean score", "setting": "[2]; 1 month treatment", "value": 13}, {"measurement": "WOMAC Physical functions mean score", "setting": "[2]; 1 month treatment", "value": 45}, {"measurement": "WOMAC Stiffness mean score", "setting": "[2]; 1 month treatment", "value": 5}, {"measurement": "WOMAC Pain mean score", "setting": "[2]; R = recruitment (baseline)", "value": 16}, {"measurement": "WOMAC Physical functions mean score", "setting": "[2]; R = recruitment (baseline)", "value": 55}, {"measurement": "WOMAC Stiffness mean score", "setting": "[2]; R = recruitment (baseline)", "value": 7}, {"measurement": "WOMAC pain scores, result in words", "setting": "[2]; after one month's administration, p<0.05", "value": "fell significantly"}, {"measurement": "Treadmill distance (median), total pain-free distance", "setting": "[3]; 1 month treatment", "value": "100*"}, {"measurement": "Treadmill distance (median), total pain-free distance", "setting": "[3]; R = recruitment (baseline)", "value": 77}, {"measurement": "Bioavailability", "setting": "[4]", "value": "low bioavailability"}, {"measurement": "Solubility in water and fats", "setting": "[5]", "value": "poorly soluble"}]}
